Test results as given in ChEMBL document CHEMBL1201862, “PubChem BioAssay data set” (2004).
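Method: 48-hour compound exposure of cells in 96-well plates, five concentrations, linear interpolation of endpoints. The concentration for 50% growth inhibition is given as GI50.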 The source made the active and inactive calls. Rule as the data show it: active = GI50 up to about 1.1 µM and inactive = higher.

What was measured:
Test in all cases: DTP human tumour cell line panel, 48 h
OVCAR-4 = test system: OVCAR-4
NCI-H522 = test system: NCI-H522
HCT-15 = test system: HCT-15
HOP-62 = test system: HOP-62
SF-268 = test system: SF-268
SR = test system: SR
T47D = test system: T47D
U-251 = test system: U-251
NCI/ADR-RES = test system: NCI/ADR-RES
SW-620 = test system: SW-620
OVCAR-5 = test system: OVCAR-5
786-0 = test system: 786-0
NCI-H460 = test system: NCI-H460
K562 = test system: K562
OVCAR-3 = test system: OVCAR-3
A549 = test system: A549
LOX IMVI = test system: LOX IMVI
SK-OV-3 = test system: SK-OV-3
HCC 2998 = test system: HCC 2998
UACC-257 = test system: UACC-257

Row | SMILES | GI50 (OVCAR-4) | GI50 (NCI-H522) | GI50 (HCT-15) | GI50 (HOP-62) | GI50 (SF-268) | GI50 (SR) | GI50 (T47D) | GI50 (U-251) | GI50 (NCI/ADR-RES) | GI50 (SW-620) | GI50 (OVCAR-5) | GI50 (786-0) | GI50 (NCI-H460) | GI50 (K562) | GI50 (OVCAR-3) | GI50 (A549) | GI50 (LOX IMVI) | GI50 (SK-OV-3) | GI50 (HCC 2998) | GI50 (UACC-257)
1 | COc1ccc(C23OCC(Cc4cc(OC)c(OC)cc42)C3COC(C)=O)cc1OC (stereo not drawn) | > 100 µM (inactive) | > 100 µM (inactive) | > 100 µM | > 100 µM (inactive) | > 100 µM (inactive) | 27.4 µM (inactive) | > 100 µM (inactive) | > 100 µM (inactive) | 25.5 µM (inactive) | > 100 µM (inactive) | > 100 µM (inactive) | > 100 µM (inactive) | > 100 µM (inactive) | > 100 µM (inactive) | > 100 µM (inactive) | > 100 µM (inactive) | > 100 µM (inactive) | > 100 µM (inactive) | > 100 µM (inactive) | –
2 | CC(=O)c1cc2ccccc2[n+]([O-])c1N | > 100 µM (inactive) | > 100 µM (inactive) | > 100 µM | > 100 µM (inactive) | > 100 µM (inactive) | > 100 µM (inactive) | > 100 µM (inactive) | > 100 µM (inactive) | > 100 µM (inactive) | – | > 100 µM (inactive) | > 100 µM (inactive) | > 100 µM (inactive) | – | > 100 µM (inactive) | > 100 µM (inactive) | > 100 µM (inactive) | > 100 µM (inactive) | > 100 µM (inactive) | > 100 µM (inactive)
3 | O=C(CN1CCCC1)Nc1ccc2c(c1)C1Oc3ccccc3CC1CO2 (stereo not drawn) | – | 32.4 µM (inactive) | 18.6 µM | 19.7 µM (inactive) | 67 µM (inactive) | 33.3 µM (inactive) | 40.1 µM (inactive) | 21.2 µM (inactive) | 73.3 µM (inactive) | 17.3 µM (inactive) | 30.9 µM (inactive) | 24.7 µM (inactive) | – | 38.6 µM (inactive) | 57.5 µM (inactive) | 41.7 µM (inactive) | 21.4 µM (inactive) | > 100 µM (inactive) | 16.8 µM (inactive) | 21.2 µM (inactive)
4 | CCOC(CNCCC(=O)OC)OCC | > 10 µM (inactive) | > 10 µM (inactive) | > 10 µM | > 10 µM (inactive) | > 10 µM (inactive) | > 10 µM (inactive) | > 10 µM (inactive) | > 10 µM (inactive) | > 10 µM (inactive) | > 10 µM (inactive) | – | > 10 µM (inactive) | > 10 µM (inactive) | > 10 µM (inactive) | > 10 µM (inactive) | > 10 µM (inactive) | > 10 µM (inactive) | > 10 µM (inactive) | > 10 µM (inactive) | > 10 µM (inactive)
5 | COC(=O)CCC12CCC(O1)c1ccccc12 (stereo not drawn) | > 100 µM (inactive) | > 100 µM (inactive) | > 100 µM | > 100 µM (inactive) | – | > 100 µM (inactive) | > 100 µM (inactive) | > 100 µM (inactive) | > 100 µM (inactive) | > 100 µM (inactive) | > 100 µM (inactive) | > 100 µM (inactive) | > 100 µM (inactive) | > 100 µM (inactive) | – | > 100 µM (inactive) | > 100 µM (inactive) | > 100 µM (inactive) | > 100 µM (inactive) | > 100 µM (inactive)
6 | CCCCON1C[C@@H](O)C(O)[C@@H](O)C1 (stereo partly drawn) | > 100 µM (inactive) | > 100 µM (inactive) | > 100 µM | > 100 µM (inactive) | > 100 µM (inactive) | > 100 µM (inactive) | > 100 µM (inactive) | > 100 µM (inactive) | > 100 µM (inactive) | > 100 µM (inactive) | > 100 µM (inactive) | > 100 µM (inactive) | > 100 µM (inactive) | > 100 µM (inactive) | > 100 µM (inactive) | > 100 µM (inactive) | > 100 µM (inactive) | – | > 100 µM (inactive) | > 100 µM (inactive)
7 | C/C(=C\CNc1ncnc2[nH]c(Cl)nc12)CO | > 100 µM (inactive) | > 100 µM (inactive) | – | > 100 µM (inactive) | > 100 µM (inactive) | > 100 µM (inactive) | > 100 µM (inactive) | – | > 100 µM (inactive) | > 100 µM (inactive) | > 100 µM (inactive) | > 100 µM (inactive) | > 100 µM (inactive) | > 100 µM (inactive) | > 100 µM (inactive) | > 100 µM (inactive) | > 100 µM (inactive) | > 100 µM (inactive) | > 100 µM (inactive) | > 100 µM (inactive)
8 | O=C1NC(c2ccccc2)C1N(Cc1ccccc1)Cc1ccccc1 (stereo not drawn) | 59.8 µM (inactive) | > 100 µM (inactive) | > 100 µM | > 100 µM (inactive) | > 100 µM (inactive) | > 100 µM (inactive) | > 100 µM (inactive) | > 100 µM (inactive) | > 100 µM (inactive) | > 100 µM (inactive) | > 100 µM (inactive) | > 100 µM (inactive) | > 100 µM (inactive) | > 100 µM (inactive) | > 100 µM (inactive) | – | > 100 µM (inactive) | > 100 µM (inactive) | > 100 µM (inactive) | > 100 µM (inactive)
